According to patent publication US7592345B2, “Piperazine and [1,4]diazepan derivatives as NK antagonists” (Hoffmann-La Roche Inc., priority 2007, dated 2009):

Tests used:
[1] = phase II trial; cited from earlier work
[2] = molecular target: T1, recombinant human NK3 receptor (Homo sapiens, UniProt P29371); test: [3H]SR142801 competition binding assay; settings: [3H]SR142801, membranes from HEK293 cells transiently expressing recombinant human NK3 receptor; read-out: hNK3 Ki
T1 construct: expressed in transfected cells; host or cells: HEK293 cells (transient expression), membranes
T1 sequence (P29371 1-465): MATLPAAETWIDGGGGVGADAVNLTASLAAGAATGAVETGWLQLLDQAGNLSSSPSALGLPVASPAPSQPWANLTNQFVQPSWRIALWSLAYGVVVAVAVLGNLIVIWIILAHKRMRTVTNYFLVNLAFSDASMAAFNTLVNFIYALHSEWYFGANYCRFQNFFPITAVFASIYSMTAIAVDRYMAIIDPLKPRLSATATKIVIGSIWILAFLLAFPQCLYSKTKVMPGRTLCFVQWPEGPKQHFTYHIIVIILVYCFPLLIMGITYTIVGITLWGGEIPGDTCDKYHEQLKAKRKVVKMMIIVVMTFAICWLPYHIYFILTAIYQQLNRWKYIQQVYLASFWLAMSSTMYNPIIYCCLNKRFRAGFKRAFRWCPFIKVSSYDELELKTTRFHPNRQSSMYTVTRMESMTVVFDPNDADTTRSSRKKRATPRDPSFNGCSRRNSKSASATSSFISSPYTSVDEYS
Method in brief: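 Membranes from HEK293 cells transiently expressing human NK3 were incubated 75 min at RT with [3H]SR142801 at its KD and inhibitor (0.0003-10 μM) in Tris-HCl pH 7.4/MnCl2/phosphoramidon/BSA. Nonspecific binding used 10 μM SB222200. Ki from Hill-fitted IC50 via Cheng-Prusoff, duplicate determinations.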

| SMILES | activity in the treatment of negative symptoms [1] | activity on positive symptoms of schizophrenia [1] | Ki [2] [nM] |
| --- | --- | --- | --- |
| CC(=O)N(C)C1(c2ccccc2)CCN(CCC[C@]2(c3ccc(Cl)c(Cl)c3)CCCN(C(=O)c3ccccc3)C2)CC1 [SR 142,801, Osanetant] | inactive | active |  |
| CC(CCN1CCN(S(C)(=O)=O)CC1)(C(=O)NCc1ccc(Cl)c(F)c1)c1ccc(Cl)c(Cl)c1 (centres unmarked) [Example 30, N-(4-Chloro-3-fluoro-benzyl)-2-(3,4-dichloro-phenyl)-4-(4-methanesulfonyl-piperazin-1-yl)-2-methyl-butyramide] |  |  | 133 |
| CC(NC(=O)C(C)(CCN1CCN(S(C)(=O)=O)[C@H](C)C1)c1ccc(Cl)c(Cl)c1)c1ccc(Cl)cc1 (stereo partly drawn) [Example 47, N-[1-(4-Chloro-phenyl)-ethyl]-2-(3,4-dichloro-phenyl)-4-((R)-4-methanesulfonyl-3-methyl-piperazin-1-yl)-2-methyl-butyramide] |  |  | 15.9 |
| CC(CCN1CCN(S(C)(=O)=O)CC1)(C(=O)NCc1ccc(C(F)(F)F)cc1)c1ccc(Cl)c(Cl)c1 (centres unmarked) [Example 27, 2-(3,4-Dichloro-phenyl)-4-(4-methanesulfonyl-piperazin-1-yl)-2-methyl-N-(4-trifluoromethyl-benzyl)-butyramide] |  |  | 82 |
